Experimental data published in PubChem BioAssay (NCI).
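All cell lines were grown in 96-well plates and treated with compound for 48 hours. GI50 is the concentration that inhibits growth by half. TGI: concentration producing complete growth inhibition.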

What follows are compounds tested on CCRF-CEM leukemia (assay: NCI anticancer screen, dose series, 48 h).

First: Cc1nc2c(Br)cc(Br)cc2c(=O)n1-c1nnc(-c2cccc(Cl)c2Cl)c(N)n1
Second: Cc1nc2sccn2c1-c1nc2sccn2c1/C=C1/C(=O)Nc2ccccc21
The GI50 of the first is 5.1-fold higher: 19.3 µM for the first, 3.79 µM for the second.

`CCOC(=O)Nc1c(C)nc2ccccn12` and `C=C(CN(C)Cc1ccccc1)c1ccc(NC(=O)c2ccc(C(=C)CN(C)Cc3ccccc3)cc2)cc1` cannot be ordered by GI50: greater than 100 µM for the first, greater than 100 µM for the second.

`C=C(C)[C@@H]1CC[C@]2(CN)CC[C@]3(C)[C@H](CC[C@@H]4[C@@]5(C)CCCNC(C)(C)[C@@H]5CC[C@]43C)[C@@H]12` showed a GI50 of 2.27 µM.

`Cc1nc2c(Br)cc(Br)cc2c(=O)n1-c1nnc(-c2cccc(Cl)c2Cl)c(N)n1` and `Nc1c(S(=O)(=O)c2ccc(Cl)cc2)c2nc3ccccc3nc2n2ccnc12` cannot be ordered by TGI: greater than 100 µM for the first, greater than 100 µM for the second.

`Cc1nc2sccn2c1-c1nc2sccn2c1/C=C1/C(=O)Nc2ccccc21` and `CN1Nc2ccccc2CC1=O` cannot be ordered by TGI: greater than 100 µM for the first, greater than 100 µM for the second.

Compared with `O=Cc1cc2c(cc1-c1cc3c(cc1C=O)OCO3)OCO2`, `COc1cc(OC)c(OC)cc1/C=N/NC(=O)N/N=C/c1cc(OC)c(OC)cc1OC` is higher in TGI: 82.7 µM for the first, greater than 100 µM for the second.

`C/C(=N\NC(N)=O)c1sc(-c2nc(C)c(/C(C)=N/NC(N)=O)s2)nc1C` and `CC(=O)N/C(=C\c1ccccc1/C=C(\NC(C)=O)c1nc2cc(C)c(C)cc2[nH]1)c1nc2cc(C)c(C)cc2[nH]1` cannot be ordered by TGI: greater than 100 µM for the first, greater than 100 µM for the second.

Going from `CN(C)CCNC(=O)Cc1ccccc1Nc1c(Cl)cccc1Cl` to `CC1=C(C(=O)Nc2ccccc2)C(c2ccc(Cl)c(Cl)c2)C(C(=O)Nc2ccccc2)=C(C)N1`, the TGI rises from 34 µM to 71.4 µM (2.1-fold).

`O/N=C1\CCCCC1C(NO)c1ccccc1` (stereo unspecified) and `CC[C@@H]1NC(C(=O)OC)Cc2c1[nH]c1ccccc21` (stereo partly specified) cannot be ordered by TGI: greater than 100 µM for the first, greater than 100 µM for the second.

`C[N+](C)(C)CC(=O)N/N=C(/Cc1cc(=O)oc2cc(O)ccc12)C(=O)Nc1ccc(Cl)cc1` and `CCOc1ccc(NC(=O)CC2SC(=Nc3ccc(C)cc3C)NC2=O)cc1` (stereo unspecified) cannot be ordered by TGI: greater than 100 µM for the first, greater than 100 µM for the second.

Going from `O=S(=O)(OI(OI(OS(=O)(=O)C(F)(F)F)c1ccccc1)c1ccccc1)C(F)(F)F` to `FC(F)(F)c1ccc2nc(NCc3ccccc3)c(-c3ccccc3)nc2c1`, the TGI rises from 91.1 µM to greater than 100 µM.

`CCOC(=O)Nc1c(C)nc2ccccn12` and `CCOC(=O)Cc1csc(Nc2ccccc2[N+](=O)[O-])n1` cannot be ordered by TGI: greater than 100 µM for the first, greater than 100 µM for the second.

`Cc1cc2c(cc1C)[n+](=O)cc(C(=O)C/C(=N/NC(=S)NN)C(=O)Nc1cccc(C(F)(F)F)c1)n2[O-]` and `Cc1cc(C)nc(NS(=O)(=O)c2ccc(Nc3c4ccccc4nc4c(C(=O)N5CCN(CCO)CC5)cccc34)cc2)n1` cannot be ordered by TGI: greater than 100 µM for the first, greater than 100 µM for the second.

`COCOCCC#CCO` and `COC(=N)c1csc(C2OC(CO)C(O)C2O)n1` (stereo unspecified) cannot be ordered by TGI: greater than 100 µM for the first, greater than 100 µM for the second.

Going from `COc1cc(C[P+](c2ccccc2)(c2ccccc2)c2ccccc2)cc(OC)c1OC` to `CC12c3ccccc3C(OC=O)(c3ccccc31)C1(C)c3ccccc3C2(OC=O)c2ccccc21`, the TGI falls from greater than 100 µM to 89.1 µM.

Going from `C=C(C)[C@@H]1CC[C@]2(CN)CC[C@]3(C)[C@H](CC[C@@H]4[C@@]5(C)CCCNC(C)(C)[C@@H]5CC[C@]43C)[C@@H]12` to `CCCCCCCCCCCC[N+]12CC[N+](CCN)(CC1)CC2`, the TGI rises from 4.92 µM to greater than 100 µM.

`CCCN(CCC)c1c([N+](=O)[O-])cc(C(=O)N(CC)CC)cc1[N+](=O)[O-]` and `O=C(c1ccc([N+](=O)[O-])cc1[N+](=O)[O-])N(/N=C/C=C/c1ccccc1)c1nnc(-c2ccccc2)c(-c2ccccc2)n1` are within 1.5-fold of each other in TGI: 60.9 µM for the first, 84.2 µM for the second.

`C=C(CN(C)Cc1ccccc1)c1ccc(NC(=O)c2ccc(C(=C)CN(C)Cc3ccccc3)cc2)cc1` and `O=C1C=C(Nc2ccc(Cl)cc2C(=O)c2ccccc2)c2ccccc2C1=O` cannot be ordered by TGI: greater than 100 µM for the first, greater than 100 µM for the second.

Going from `CCCCCCCC(=O)OCC1OC(n2cc(F)c(=O)[nH]c2=O)C(N)C(OC(=O)CCCCCCC)C1O` (stereo unspecified) to `O=c1[nH]c(=O)n(C2CC(O)C(CO)O2)cc1OS(=O)(=O)C(F)(F)F` (stereo unspecified), the TGI rises from 40.4 µM to greater than 100 µM.

`Oc1oc(C(=C2N=c3ccccc3=N2)c2ccc(Cl)cc2)c(O)c1-c1ccc(Cl)cc1` and `COc1ccc(NC(=O)CSc2nnc(-c3ccc(NC(C)=O)cc3)o2)cc1` cannot be ordered by TGI: greater than 100 µM for the first, greater than 100 µM for the second.

`Cc1nc2c(N)ncnc2o1` and `CN(Cc1cnc2nc(N)nc(N)c2n1)c1ccc(C(=O)N[C@@H](CCS(=O)(=O)O)C(=O)O)cc1` cannot be ordered by TGI: greater than 100 µM for the first, greater than 100 µM for the second.

With `O=C1C/C(Br)=C\c2ccccc2-c2ccccc21` the TGI was 10.4 µM.

Each compound was assayed on HS 578T breast (assay: NCI anticancer screen, dose series, 48 h).

Going from `Cc1nc2c(Br)cc(Br)cc2c(=O)n1-c1nnc(-c2cccc(Cl)c2Cl)c(N)n1` to `Cc1nc2sccn2c1-c1nc2sccn2c1/C=C1/C(=O)Nc2ccccc21`, the GI50 falls from 16 µM to 1.96 µM (8.2-fold).

Compared with `N#CC(I)CS(=O)(=O)c1ccccc1` (stereo unspecified), `CCOC(=O)Nc1c(C)nc2ccccn12` is higher in GI50: 26.5 µM for the first, greater than 100 µM for the second.

Going from `COC(=O)c1c2c(c(C)[n+]([O-])c1C)C(=O)C(NCc1ccc(Br)cc1)=CC2=O` to `CCSc1nc(N=Cc2ccccc2O)c2cn[nH]c2n1`, the GI50 rises from 2.64 µM to 20.9 µM (7.9-fold).

Compared with `C=C(C)[C@@H]1CC[C@]2(CN)CC[C@]3(C)[C@H](CC[C@@H]4[C@@]5(C)CCCNC(C)(C)[C@@H]5CC[C@]43C)[C@@H]12`, `C=C(CN(C)Cc1ccccc1)c1ccc(NC(=O)c2ccc(C(=C)CN(C)Cc3ccccc3)cc2)cc1` is 22-fold higher in GI50: 1.8 µM for the first, 40 µM for the second.

Compared with `Cc1nc2c(Br)cc(Br)cc2c(=O)n1-c1nnc(-c2cccc(Cl)c2Cl)c(N)n1`, `Cc1nc2sccn2c1-c1nc2sccn2c1/C=C1/C(=O)Nc2ccccc21` is 4.8-fold lower in TGI: 47.2 µM for the first, 9.75 µM for the second.

Going from `N#CC(I)CS(=O)(=O)c1ccccc1` (stereo unspecified) to `O=[N+]([O-])c1cccnc1N=Nc1c(O)[nH]c2ccccc12`, the TGI rises from 61.4 µM to greater than 100 µM.

First: COC(=O)c1c2c(c(C)[n+]([O-])c1C)C(=O)C(NCc1ccc(Br)cc1)=CC2=O
Second: CN(Cc1cnc2nc(N)nc(N)c2n1)c1ccc(C(=O)N[C@@H](CCS(=O)(=O)O)C(=O)O)cc1
The TGI of the first is lower: 9.94 µM for the first, greater than 100 µM for the second.

Compared with `CCOC(=O)Nc1c(C)nc2ccccn12`, `CCSc1nc(N=Cc2ccccc2O)c2cn[nH]c2n1` is lower in TGI: greater than 100 µM for the first, 69.2 µM for the second.

Compared with `C=C(C)[C@@H]1CC[C@]2(CN)CC[C@]3(C)[C@H](CC[C@@H]4[C@@]5(C)CCCNC(C)(C)[C@@H]5CC[C@]43C)[C@@H]12`, `C=C(CN(C)Cc1ccccc1)c1ccc(NC(=O)c2ccc(C(=C)CN(C)Cc3ccccc3)cc2)cc1` is higher in TGI: 4 µM for the first, greater than 100 µM for the second.

What follows are compounds tested on OVCAR-3 ovarian (assay: NCI anticancer screen, dose series, 48 h).

Compared with `Cc1nc2c(Br)cc(Br)cc2c(=O)n1-c1nnc(-c2cccc(Cl)c2Cl)c(N)n1`, `Cc1nc2sccn2c1-c1nc2sccn2c1/C=C1/C(=O)Nc2ccccc21` is 11-fold lower in GI50: 18.6 µM for the first, 1.7 µM for the second.

First: N#CC(I)CS(=O)(=O)c1ccccc1 (stereo unspecified)
Second: CCOC(=O)Nc1c(C)nc2ccccn12
The GI50 of the first is lower: 2.03 µM for the first, greater than 100 µM for the second.

First: COC(=O)c1c2c(c(C)[n+]([O-])c1C)C(=O)C(NCc1ccc(Br)cc1)=CC2=O
Second: CCSc1nc(N=Cc2ccccc2O)c2cn[nH]c2n1
The GI50 of the first is 46-fold lower: 0.301 µM for the first, 13.8 µM for the second.

Work on `C=C(CN(C)Cc1ccccc1)c1ccc(NC(=O)c2ccc(C(=C)CN(C)Cc3ccccc3)cc2)cc1` yielded a GI50 greater than 100 µM.

Compared with `Cc1nc2c(Br)cc(Br)cc2c(=O)n1-c1nnc(-c2cccc(Cl)c2Cl)c(N)n1`, `Nc1c(S(=O)(=O)c2ccc(Cl)cc2)c2nc3ccccc3nc2n2ccnc12` is higher in TGI: 60.4 µM for the first, greater than 100 µM for the second.

Compared with `N#CC(I)CS(=O)(=O)c1ccccc1` (stereo unspecified), `O/N=C1\CCCCC1C(NO)c1ccccc1` (stereo unspecified) is higher in TGI: 3.55 µM for the first, greater than 100 µM for the second.

Compared with `Cc1nc2sccn2c1-c1nc2sccn2c1/C=C1/C(=O)Nc2ccccc21`, `O=C1C=C(c2c(O)ccc3ccccc23)c2cc(O)ccc2C1=O` is 3.6-fold higher in TGI: 6.24 µM for the first, 22.5 µM for the second.

`O=Cc1cc2c(cc1-c1cc3c(cc1C=O)OCO3)OCO2` and `COc1cc(OC)c(OC)cc1/C=N/NC(=O)N/N=C/c1cc(OC)c(OC)cc1OC` cannot be ordered by TGI: greater than 100 µM for the first, greater than 100 µM for the second.

`C/C(=N\NC(N)=O)c1sc(-c2nc(C)c(/C(C)=N/NC(N)=O)s2)nc1C` and `C[N+](C)(C)CC(=O)N/N=C(/Cc1cc(=O)oc2cc(O)ccc12)C(=O)Nc1ccc(Cl)cc1` cannot be ordered by TGI: greater than 100 µM for the first, greater than 100 µM for the second.

First: CN(C)CCNC(=O)Cc1ccccc1Nc1c(Cl)cccc1Cl
Second: O=C1C=C(Nc2ccc(Cl)cc2C(=O)c2ccccc2)c2ccccc2C1=O
The TGI of the first is lower: 36.1 µM for the first, greater than 100 µM for the second.

Compared with `COC(=O)c1c2c(c(C)[n+]([O-])c1C)C(=O)C(NCc1ccc(Br)cc1)=CC2=O`, `CCOc1ccc(NC(=O)CC2SC(=Nc3ccc(C)cc3C)NC2=O)cc1` (stereo unspecified) is higher in TGI: 0.957 µM for the first, greater than 100 µM for the second.

`O=S(=O)(OI(OI(OS(=O)(=O)C(F)(F)F)c1ccccc1)c1ccccc1)C(F)(F)F` and `FC(F)(F)c1ccc2nc(NCc3ccccc3)c(-c3ccccc3)nc2c1` cannot be ordered by TGI: greater than 100 µM for the first, greater than 100 µM for the second.

`CCOC(=O)Nc1c(C)nc2ccccn12` and `CC[C@@H]1NC(C(=O)OC)Cc2c1[nH]c1ccccc21` (stereo partly specified) cannot be ordered by TGI: greater than 100 µM for the first, greater than 100 µM for the second.

`Cc1cc2c(cc1C)[n+](=O)cc(C(=O)C/C(=N/NC(=S)NN)C(=O)Nc1cccc(C(F)(F)F)c1)n2[O-]` and `O=[N+]([O-])c1cccnc1N=Nc1c(O)[nH]c2ccccc12` cannot be ordered by TGI: greater than 100 µM for the first, greater than 100 µM for the second.

`COCOCCC#CCO` and `COC(=N)c1csc(C2OC(CO)C(O)C2O)n1` (stereo unspecified) cannot be ordered by TGI: greater than 100 µM for the first, greater than 100 µM for the second.

`COc1cc(C[P+](c2ccccc2)(c2ccccc2)c2ccccc2)cc(OC)c1OC` and `C=C(CN(C)Cc1ccccc1)c1ccc(NC(=O)c2ccc(C(=C)CN(C)Cc3ccccc3)cc2)cc1` cannot be ordered by TGI: greater than 100 µM for the first, greater than 100 µM for the second.

`CCCN(CCC)c1c([N+](=O)[O-])cc(C(=O)N(CC)CC)cc1[N+](=O)[O-]` and `CCCCCCCC(=O)OCC1OC(n2cc(F)c(=O)[nH]c2=O)C(N)C(OC(=O)CCCCCCC)C1O` (stereo unspecified) are within 1.5-fold of each other in TGI: 33.3 µM for the first, 41.2 µM for the second.

Going from `CN1Nc2ccccc2CC1=O` to `O=C1C/C(Br)=C\c2ccccc2-c2ccccc21`, the TGI falls from greater than 100 µM to 7.52 µM.

`CCOc1ccc(OCC(=O)O)c2c1CCCC2=O` and `O=c1[nH]c(=O)n(C2CC(O)C(CO)O2)cc1OS(=O)(=O)C(F)(F)F` (stereo unspecified) cannot be ordered by TGI: greater than 100 µM for the first, greater than 100 µM for the second.

First: CCSc1nc(N=Cc2ccccc2O)c2cn[nH]c2n1
Second: Oc1oc(C(=C2N=c3ccccc3=N2)c2ccc(Cl)cc2)c(O)c1-c1ccc(Cl)cc1
The TGI of the first is lower: 61.2 µM for the first, greater than 100 µM for the second.

`Cc1nc2c(N)ncnc2o1` and `CCCCCCCCCCCC[N+]12CC[N+](CCN)(CC1)CC2` cannot be ordered by TGI: greater than 100 µM for the first, greater than 100 µM for the second.
